Experimental data published in ChEMBL document CHEMBL1150075, “Apiosporamide, a new antifungal agent from the coprophilous fungus Apiospora montagnei” (1994).
Activity calls are given as the source filed them. No cut-off for these calls is given here.

Legend:
[1] = system: Ascobolus; experiment: Antifungal activity against Ascobolus furfuraceus NRRL 6460 assessed as inhibition of radial growth rate at 200 ug/disk relative to control; format: functional; design: scale not given: the % may be the effect or the level left
[2] = system: Staphylococcus aureus; experiment: Antibacterial activity against Staphylococcus aureus ATCC 29213 at 200 ug/disk; format: functional; conditions: read-out: IZ
[3] = system: Bacillus subtilis; experiment: Antibacterial activity against Bacillus subtilis ATCC 6051 at 200 ug/disk; format: functional; conditions: read-out: IZ
[4] = system: Candida albicans; experiment: Antifungal activity against Candida albicans ATCC 14053 at 200 ug/disk; format: functional, organism-based

In the case of C[C@H]1CC[C@@H]2[C@@H](C(=O)c3c(O)c([C@]4(O)CC[C@@H](O)[C@H]5O[C@H]54)c[nH]c3=O)[C@@H](C)C=C[C@H]2C1 [APIOSPORAMIDE], the Activity [1] is reported as 53%, the zone of inhibition at 200 µg/disc [2] is reported as 21 mm and the zone of inhibition at 200 µg/disc [3] is reported as 32 mm. The Activity [4] was “inactive”.
